In assay [1] the test system is human prostate cancer cell DU145. Briefly: MTT assay, survival rate of tumor cells (antiproliferative activity). The assay is classed as cell-based. As to conditions: DU-145, 72 h, read-out: Antiproliferative activity against human prostate cancer cell DU145, IC50. How it is done: DU145 cells (human prostate cancer cells) in logarithmic growth phase were digested with 0.25% trypsin-EDTA to prepare single cell suspension, which was inoculated into 96-well plate overnight according to 1500 cells/well/100 μL, and fresh medium containing different concentrations of compounds to be tested and corresponding solvent control was added, and 100 μL (DMSO final concentration <0.1%) was added to each well, and the 96-well plate was further cultured at 37° C. for 72 h. 20 μL of freshly prepared PBS solution containing 5 mg/mL MTT was added to each well, and the 96-well plate was further cultured for 4 h. After the supernatant was discarded, 180 μL of DMSO was added to each well to dissolve the MTT formazan precipitate. After the 96-well plate was shaked and mixed by a micro oscillator, the optical density (OD) at the detection wavelength of 570 nm was measured. With DMSO-treated tumor cells as the control group, the inhibition rate on the growth of tumor cells of the compound to be tested was calculated from the following formula, and the IC50 was calculated according to the median-effect equation. Inhibition rate (%)=(average OD value of control group-average OD value of dosing group)/average OD value of control group×100%
For orientation: Tetrazolium assays rely on reduction of a dye to a coloured formazan, in cell work by metabolically active cells.

The subject of another assay is STAT3 transcription. Briefly: STAT3 specific luciferase double reporter gene experiment in DU145 cells. It counts as cell-based, human. Particulars: for STAT3 transcription inhibition activity: DU145, STAT3 specific luciferase double reporter; for IC50: Homo sapiens, DU-145, DU145 with high STAT3 expression, 24 h. How it is done: The luciferase plasmids STAT3-TA-Luc and pGMLR-TK were transiently co-transfected into DU145 cells by Lipofectamine 3000. After staying overnight, different concentrations of compounds to be tested were added and cultured for 24 hours. The supernatant was discarded, and the residue was washed twice with PBS, and then 20 μL of lysis solution was added to shake and lyse for 5 min. The supernatant was transferred to a 96-well Costar whiteplate, and 70 μL of Dual-Glo luciferase substrate solution was added, and the relative fluorescence intensity of firefly luciferase was detected, and then 70 μL of Stop-Glo substrate solution was added, and the relative fluorescence intensity of sea kidney luciferase was detected, the normalized value was obtained, and the inhibition rate and IC50 value were calculated.
Background: A reporter such as luciferase makes a cellular process visible.

The next assay deals with p-STAT3 (Tyr705). In words: Western blotting of p-STAT3 expression in DU145 cells. The assay is classed as cell-based, human. How it is done: DU145 cells treated for 16 h with different concentrations of examples 12, 23, 33 and 34 and DU145 cells in control group were collected and washed twice with pre-cooled PBS. After appropriate amount of RIPA lysate (50 mM Tris-HCl, 1 mM EDTA, 1% Triton X-100, 150 mM NaCl, 0.1% SDS, 1 mM NaF, Na3VO4, protease inhibitor, pH 7.4) was added to lyse for 1 h on ice, the reaction mixture was centrifuged at 4° C., 12,000 rpm for 20 min, and then the supernatant was collected for protein quantification and boiled for denaturation. Equal amount of protein was taken for 10% SDS-PAGE electrophoresis. The specific antibodies of p-STAT3 (Tyr705) and STAT3 were used as primary antibody, which was incubated overnight at 4° C. The corresponding HRP-labeled secondary antibody was used, incubated at room temperature for 2 h, and washed. ECL chemiluminescence substrate reaction solution was added to develop in gel imaging system, and the image was saved. (3-actin was used as internal reference.
In general terms: A western blot detects proteins with antibodies after separation by electrophoresis.

Data on 26 molecules can be found in patent US12391647B2, “Benzamide compound and preparation method, use, and pharmaceutical composition thereof” (INSTITUTE OF MATERIA MEDICA, CHINESE ACADEMY OF MEDICAL …, priority 2018, dated 2025).

Broadly, the IC50 is the concentration that gives 50% inhibition.

Take `Cc1ccc(S(=O)(=O)Nc2cccc(C(=O)NCc3cccnc3)c2)cc1` [Example 2, 3-((4-methylphenyl)sulfonamido)-N-(pyridin-3-ylmethyl)benzamide]: the IC50 in assay [1] worked out at 700 ± 150 nM.
In the case of `Cc1ccc(S(=O)(=O)Nc2cc(C(=O)NCc3cccnc3)ccc2F)cc1` [Example 3, 4-fluoro-3-((4-methylphenyl)sulfonamido)-N-(pyridin-3-ylmethyl) benzamide], the IC50 in assay [1] is 790 ± 130 nM.
Consider `Cc1ccc(S(=O)(=O)Nc2cc(C(=O)NCc3cccnc3)ccc2Cl)cc1` [Example 4, 4-chloro-3-((4-methylphenyl)sulfonamido)-N-(pyridin-3-ylmethyl) benzamide], for which, in assay [1], the IC50 was determined as 800 ± 120 nM.
Consider `CCc1ccc(C(=O)NCc2cccnc2)cc1NS(=O)(=O)c1ccc(C)cc1` [Example 6, 4-ethyl-3-((4-methylphenyl)sulfonamido)-N-(pyridin-3-ylmethyl)benzamide], for which the IC50 in assay [1] stood at 860 ± 80 nM. In the assay on STAT3 transcription, the “STAT3 transcription inhibition activity” value was “obvious STAT3 transcription inhibition activity” and the IC50 came out at 9700 ± 1300 nM.
For `Cc1ccc(S(=O)(=O)Nc2cc(C)cc(C(=O)NCc3cccnc3)c2)cc1` [Example 7, 3-methyl-5-((4-methylphenyl)sulfonamido)-N-(pyridin-3-ylmethyl)benzamide], the IC50 in assay [1] was 340 ± 10 nM.
Turning to `Cc1ccc(S(=O)(=O)Nc2cc(F)cc(C(=O)NCc3cccnc3)c2)cc1` [Example 9, 3-fluoro-5-((4-methylphenyl)sulfonamido)-N-(pyridin-3-ylmethyl)benzamide], the results for the IC50 (in assay [1]; in the assay with STAT3 transcription) were 900 ± 20 nM and 6200 ± 300 nM, respectively. Besides, in the assay on STAT3 transcription, the “STAT3 transcription inhibition activity” value was “obvious STAT3 transcription inhibition activity”.
For `Cc1ccc(S(=O)(=O)Nc2cc(Cl)cc(C(=O)NCc3cccnc3)c2)cc1` [Example 10, 3-chloro-5-((4-methylphenyl)sulfonamido)-N-(pyridin-3-ylmethyl)benzamide], the IC50 in assay [1] was found to be 340 ± 10 nM.
For the molecule `Cc1ccc(S(=O)(=O)Nc2ccc(C)c(C(=O)NCc3cccnc3)c2)cc1` [Example 11, 2-methyl-5-((4-methylphenyl)sulfonamido)-N-(pyridin-3-ylmethyl)benzamide], the IC50 in assay [1] was determined as 2000 ± 30 nM.
As to `COc1ccc(S(=O)(=O)Nc2cc(C(=O)NCc3cccnc3)ccc2C)cc1` [Example 13, 3-((4-methoxyphenyl)sulfonamido)-4-methyl-N-(pyridin-3-ylmethyl)benzamide], the figures for the IC50 (in assay [1]; with STAT3 transcription) were 180 ± 80 nM and 10000 ± 2100 nM, respectively. Besides, the “STAT3 transcription inhibition activity” value in the assay on STAT3 transcription is listed as “obvious STAT3 transcription inhibition activity”.
Take `COc1cccc(S(=O)(=O)Nc2cc(C(=O)NCc3cccnc3)ccc2C)c1` [Example 14, 3-((3-methoxyphenyl)sulfonamido)-4-methyl-N-(pyridin-3-ylmethyl)benzamide]: in assay [1], the IC50 came to 2500 ± 20 nM.
For the molecule `CCOc1ccc(S(=O)(=O)Nc2cc(C(=O)NCc3cccnc3)ccc2C)cc1` [Example 15, 3-((4-ethoxyphenyl)sulfonamido)-4-methyl-N-(pyridin-3-ylmethyl)benzamide], in assay [1], the IC50 amounted to 860 ± 60 nM.
For `Cc1ccc(S(=O)(=O)Nc2cc(C(=O)NCc3cccnc3)ccc2C)cc1C` [Example 16, 3-((3,4-dimethylphenyl)sulfonamido)-4-methyl-N-(pyridin-3-ylmethyl)benzamide], the concentration for half-maximal inhibition (IC50) in assay [1] amounted to 970 ± 30 nM.
For `Cc1ccc(S(=O)(=O)Nc2cc(C(=O)NCc3cccnc3)ccc2C)c(C)c1` [Example 17, 3-((2,4-dimethylphenyl)sulfonamido)-4-methyl-N-(pyridinylmethyl)benzamide], the IC50 in assay [1] came out at 500 ± 40 nM; in the assay with STAT3 transcription, 8200 ± 20 nM.
For the molecule `Cc1ccc(C(=O)NCc2cccnc2)cc1NS(=O)(=O)c1ccc(F)cc1` [Example 20, 3-((4-fluorophenyl)sulfonamido)-4-methyl-N-(pyridin-3-ylmethyl)benzamide], the IC50 in assay [1] turned out to be 3470 ± 1220 nM; with STAT3 transcription, 15000 ± 1400 nM. In addition, the “STAT3 transcription inhibition activity” value in the assay on STAT3 transcription was “obvious STAT3 transcription inhibition activity”.
Consider `Cc1ccc(C(=O)NCc2cccnc2)cc1NS(=O)(=O)c1ccc(Cl)cc1` [Example 21, 3-((4-chlorophenyl)sulfonamido)-4-methyl-N-(pyridin-3-ylmethyl)benzamide], for which, in assay [1], the IC50 came out at 930 ± 50 nM.
Take `Cc1ccc(C(=O)NCc2cccnc2)cc1NS(=O)(=O)c1ccc(C(C)C)cc1` [Example 22, 3-((4-isopropylphenyl)sulfonamido)-4-methyl-N-(pyridin-3-ylmethyl)benzamide]: the IC50 in assay [1] stood at 1000 ± 160 nM.
In the case of `Cc1ccc(C(=O)NCc2cccnc2)cc1NS(=O)(=O)c1ccc(C2CC2)cc1` [Example 23, 3-((4-cyclopropylphenyl)sulfonamido)-4-methyl-N-(pyridin-3-ylmethyl)benzamide], the IC50 worked out at 50 ± 8 nM in assay [1] and 1000 nM in the assay with STAT3 transcription. Besides, the “STAT3 transcription inhibition activity” value with STAT3 transcription was “obvious STAT3 transcription inhibition activity”. In the assay with p-STAT3 (Tyr705) (DU145, 0.5 μM concentration), the “inhibitory activity on STAT3 phosphorylation” value was “obvious inhibitory activity”.
`Cc1ccc(C(=O)NCc2cccnc2)cc1NS(=O)(=O)c1ccc2c(c1)CCC2` [Example 25, 3-((2,3-dihydro-1H-indene)-5-sulfonamido)-4-methyl-N-(pyridinylmethyl)benzamide]: the IC50 in assay [1] turned out to be 900 ± 40 nM.
On the same count and under the same terms, for `Cc1ccc(C(=O)NCc2cccnc2)cc1NS(=O)(=O)c1ccc2c(c1)OCO2` [Example 26, 3-(benzo[d][1,3]dioxole-5-sulfonamido)-4-methyl-N-(pyridin-3-ylmethyl)benzamide] the value was 610 ± 140 nM; for `Cc1ccc(C(=O)NCc2cccnc2)cc1NS(=O)(=O)c1ccc2c(c1)CCO2` [Example 27, 3-((2,3-dihydrobenzofuran)-5-sulfonamido)-4-methyl-N-(pyridin-3-ylmethyl)benzamide], 1200 ± 10 nM; for `Cc1ccc(C(=O)NCc2cccnc2)cc1NS(=O)(=O)c1ccc2c(c1)OCCO2` [Example 28, 3-((2,3-dihydrobenzo[b][1,4]dioxine)-6-sulfonamido)-4-methyl-N-(pyridin-3-ylmethyl)benzamide], 420 ± 10 nM.
Consider `Cc1ccc(C(=O)NCc2cccnc2)cc1NS(=O)(=O)c1ccc2ccccc2c1` [Example 29, 4-methyl-3-(naphthalene-2-sulfonamido)-N-(pyridin-3-ylmethyl)benzamide], for which, in assay [1], the IC50 is 1000 ± 70 nM.
As for `Cc1ccc(S(=O)(=O)Nc2cc(C(=O)NCc3cccnc3)ccc2C)s1` [Example 30, 4-methyl-3-((5-methylthiophene)-2-sulfonamido)-N-(pyridin-3-ylmethyl)benzamide], the IC50 in assay [1] is 1200 ± 30 nM; in the assay on STAT3 transcription it was 17500 ± 300 nM. The “STAT3 transcription inhibition activity” value in the assay on STAT3 transcription is “obvious STAT3 transcription inhibition activity”.
On to `COc1ccc(S(=O)(=O)Nc2cc(C(=O)NCc3cccnc3)ccc2C)cn1` [Example 32, 3-((6-methoxypyridine)-3-sulfonamido)-4-methyl-N-(pyridin-3-ylmethyl)benzamide], for which the IC50 in assay [1] was found to be 400 ± 20 nM.
As to `COc1ccc(CNC(=O)c2ccc(C)c(NS(=O)(=O)c3ccc(C)cc3)c2)cn1` [Example 34, N-((6-methoxypyridin-3-yl)methyl)-4-methyl-3-((4-methylphenyl)sulfonamido)benzamide], the IC50 in assay [1] is 6 ± 2 nM. Also, in the assay on STAT3 transcription, the “STAT3 transcription inhibition activity” value is “obvious STAT3 transcription inhibition activity” and the IC50 is 800 ± 270 nM. Also, the “inhibitory activity on STAT3 phosphorylation” value in the assay on p-STAT3 (Tyr705) (DU145, 0.1 μM concentration) is listed as “obvious inhibitory activity”.
`Cc1ccc(S(=O)(=O)Nc2cc(C(=O)NCc3ccc(C(F)(F)F)nc3)ccc2C)cc1` [Example 35, 4-methyl-3-((4-methylphenyl)sulfonamido)-N-((6-(trifluoromethyl)pyridin-3-yl)methyl)benzamide]: the IC50 in assay [1] came out at 200 ± 70 nM. For the same molecule, in the assay with STAT3 transcription, the “STAT3 transcription inhibition activity” value is “obvious STAT3 transcription inhibition activity” and half-maximal inhibition (IC50) required 8000 nM.
